Data taken from ChEMBL document CHEMBL5365531, “Structure-Activity Relationship Studies of SARS-CoV-2 Main Protease Inhibitors Containing 4-Fluorobenzothiazole-2-carbonyl Moieties” (J Med Chem, 2023).

Legend:
[1] = Cytotoxicity against African green monkey Vero E6 cells incubated for 3 days by WST-8 assay; assay type: toxicity, cell-based, Vero C1008; conditions: chlorocebus sabaeus, time 3 day
SARS-CoV-2 [2] = assay: Antiviral activity against SARS-CoV-2 JPN/TY/WK-521 infected in Vero E6 cells assessed as fold change preincubated with cells for 1 day followed by viral infection and measured after 3 days by qRT-PCR analysis relative to 7-fluoro-N-((S)-1-(((S)-1-(4-fluorobenzo[d]thiazol-2-yl)-1-oxo-3-((S)-2-oxopyrrolidin-3-yl)propan-2-yl)amino)-3,3-dimethyl-1-oxobutan-2-yl)-4-methoxy-1H-indole-2-carboxamide; assay type: functional, Severe acute respiratory syndrome coronavirus 2; conditions: time 4 day
SARS-CoV-2 [3] = assay: Antiviral activity against SARS-CoV-2 JPN/TY/WK-521 infected in Vero E6 cells preincubated with cells for 1 day followed by viral infection and measured after 3 days by qRT-PCR analysis; assay type: functional, organism-based; conditions: Severe acute respiratory syndrome coronavirus 2, JPN/TY/WK-521, Vero C1008
SARS-CoV-2 [4] = assay: Antiviral activity against SARS-CoV-2 infected in Vero E6 cells assessed as fold change preincubated with cells for 1 day followed by viral infection and measured after 3 days by qRT-PCR analysis relative to YH-53; assay type: functional, Severe acute respiratory syndrome coronavirus 2; conditions: time 4 day
SARS-CoV-2 [5] = assay: Antiviral activity against SARS-CoV-2 infected in Vero E6 cells preincubated with cells for 1 day followed by viral infection and measured after 3 days by qRT-PCR analysis; assay type: functional, organism-based; conditions: Severe acute respiratory syndrome coronavirus 2, Vero C1008
SARS-CoV-2 [6] = assay: Antiviral activity against SARS-CoV-2 JPN/TY/WK-521 infected in Vero E6 cells assessed as fold change preincubated with cells for 1 day followed by viral infection and measured after 3 days by qRT-PCR analysis relative to TKB245; assay type: functional, Severe acute respiratory syndrome coronavirus 2; conditions: time 4 day
PBMC = assay: Cytotoxicity against human PBMC cells assessed as reduction in cell viability at 3 uM incubated for 12 days by CCK-8 assay; assay type: toxicity, cell-based; conditions: 288 h, time 12 day
MT2 = assay: Cytotoxicity against human MT2 cells assessed as reduction in cell viability at 3 uM incubated for 12 days by CCK-8 assay; assay type: toxicity, cell-based; conditions: mt2, 288 h, time 12 day
MOLT-4 = assay: Cytotoxicity against human MOLT-4 cells assessed as reduction in cell viability at 3 uM incubated for 12 days by CCK-8 assay; assay type: toxicity, cell-based; conditions: molt-4, 288 h, time 12 day

Which results are given for CC(C)(C)[C@H](NC(=O)C(F)(F)F)C(=O)N1C[C@H]2[C@@H]([C@H]1C(=O)N[C@@H](C[C@@H]1CCNC1=O)C(=O)c1nc3ccccc3s1)C2(C)C?
CC50 at 72 h [1]: > 100 µM; fold change (FC) (SARS-CoV-2 [2]): 0.071; EC50 (SARS-CoV-2 [3]): 0.015 µM

With COc1cccc2[nH]c(C(=O)N3C[C@H]4[C@@H]([C@H]3C(=O)N[C@@H](C[C@@H]3CCNC3=O)C(=O)c3nc5ccccc5s3)C4(C)C)cc12 as the compound, how does the CC50 at 72 h [1] read?
The CC50 at 72 h was greater than 100 µM.

What about the “fold change (FC)” value (SARS-CoV-2 [2]) of the same compound?
The value was 11.

What about the EC50 (SARS-CoV-2 [3]) of the same compound?
The EC50 was 2.5 µM.

Which results are given for COc1ccc(F)c2[nH]c(C(=O)N[C@H](C(=S)N[C@@H](C[C@@H]3CCNC3=O)C(=O)c3nc4c(F)cccc4s3)C(C)(C)C)cc12?
CC50 at 72 h [1]: > 100 µM; fold change (FC) (SARS-CoV-2 [4]): 0.16; EC50 (SARS-CoV-2 [5]): 0.34 µM

Which “fold change (FC)” value (SARS-CoV-2 [6]) does the source give for CC(C)(C)[C@H](NC(=O)C(F)(F)F)C(=O)N1C[C@H]2[C@@H]([C@H]1C(=O)N[C@@H](C[C@@H]1CCNC1=O)C(=O)c1nc3c(Br)cccc3s1)C2(C)C here?
Its value is 2.9.

And the CC50 at 72 h [1]?
Its CC50 at 72 h is greater than 100 µM.

And the EC50 (SARS-CoV-2 [3])?
The EC50 was 0.063 µM.

With CC(C)(C)[C@H](NC(=O)C(F)(F)F)C(=O)N1C[C@H]2[C@@H]([C@H]1C(=O)N[C@@H](C[C@@H]1CCNC1=O)C(=O)c1nc3c(Cl)cccc3s1)C2(C)C as the compound, how does the “fold change (FC)” value (SARS-CoV-2 [6]) read?
Its value is 0.86.

And the CC50 at 72 h [1]?
The CC50 at 72 h was greater than 100 µM.

And the EC50 (SARS-CoV-2 [3])?
Its EC50 is 0.019 µM.

Which results are given for CC(C)(F)[C@H](NC(=O)C(F)(F)F)C(=O)N1C[C@H]2[C@@H]([C@H]1C(=O)N[C@@H](C[C@@H]1CCNC1=O)C(=O)c1nc3c(F)cccc3s1)C2(C)C?
fold change (FC) (SARS-CoV-2 [6]): 21; CC50 at 72 h [1]: > 100 µM; EC50 (SARS-CoV-2 [3]): 0.25 µM

What does the source list for COc1cccc2[nH]c(C(=O)N[C@H](C(=O)N[C@@H](C[C@@H]3CCNC3=O)C(=O)c3nc4ccccc4s3)C(C)(C)C)cc12?
CC50 at 72 h [1]: > 100 µM; EC50 (SARS-CoV-2 [5]): 2.2 µM

Which results are given for CC1(C)[C@@H]2[C@@H](C(=O)N[C@@H](C[C@@H]3CCNC3=O)C(=O)c3nc4c(F)cccc4s3)N(C(=O)c3cc4c(F)ccc(F)c4[nH]3)C[C@@H]21?
CC50 at 72 h [1]: > 100 µM; fold change (FC) (SARS-CoV-2 [2]): 3.1; EC50 (SARS-CoV-2 [3]): 0.75 µM

With CC(C)(C)[C@H](NC(=O)C(F)(F)F)C(=O)NC1(C(=O)N[C@@H](C[C@@H]2CCNC2=O)C(=O)c2nc3c(F)cccc3s2)CCC(F)(F)C1 (some centres not stated) as the compound, how does the “fold change (FC)” value (SARS-CoV-2 [6]) read?
Its value is 90.

And the CC50 at 72 h [1]?
The CC50 at 72 h was greater than 100 µM.

What about the EC50 (SARS-CoV-2 [3]) of the same compound?
The EC50 was 2.4 µM.

For COc1ccc(F)c2[nH]c(C(=O)N3C[C@H]4[C@@H]([C@H]3C(=O)N[C@@H](C[C@@H]3CCNC3=O)C(=O)c3nc5c(F)cccc5s3)C4(C)C)cc12, which CC50 at 72 h [1] is on record?
The CC50 at 72 h was greater than 100 µM.

What about the “fold change (FC)” value (SARS-CoV-2 [2]) of the same compound?
Its value is 2.7.

And the EC50 (SARS-CoV-2 [3])?
Its EC50 is 0.56 µM.

With CC(C)C[C@H](NC(=O)[C@@H](NC(=O)C(F)(F)F)C(C)(C)C)C(=O)N[C@@H](C[C@@H]1CCNC1=O)C(=O)c1nc2c(F)cccc2s1 as the compound, how does the CC50 at 72 h [1] read?
The CC50 at 72 h was greater than 100 µM.

What about the “fold change (FC)” value (SARS-CoV-2 [2]) of the same compound?
Its value is 1.

What about the EC50 (SARS-CoV-2 [3]) of the same compound?
The EC50 was 0.36 µM.

Which results are given for CC1(C)[C@@H]2[C@@H](C(=O)N[C@@H](C[C@@H]3CCNC3=O)C(=O)c3nc4c(F)cccc4s3)N(C(=O)[C@H](CCC(F)(F)F)NC(=O)C(F)(F)F)C[C@@H]21?
fold change (FC) (SARS-CoV-2 [6]): 14; CC50 at 72 h [1]: > 100 µM; EC50 (SARS-CoV-2 [3]): 0.59 µM

Which CC50 at 72 h [1] does the source give for COc1ccc(F)c2[nH]c(C(=O)N[C@H](C(=O)N[C@@H](C[C@@H]3CCNC3=O)C(=O)c3nc4c(F)cccc4s3)C(C)(C)C)cc12 here?
Its CC50 at 72 h is greater than 100 µM.

And the “fold change (FC)” value (SARS-CoV-2 [4])?
The value was 0.13.

And the EC50 (SARS-CoV-2 [5])?
The EC50 was 0.29 µM.

Which results are given for CC1(C)[C@@H]2[C@@H](C(=O)N[C@@H](C[C@@H]3CCNC3=O)C(=O)c3nc4c(F)cccc4s3)N(C(=O)[C@H](CC(F)(F)F)NC(=O)C(F)(F)F)C[C@@H]21?
fold change (FC) (SARS-CoV-2 [6]): 34; CC50 at 72 h [1]: > 100 µM; EC50 (SARS-CoV-2 [3]): 2.8 µM

Which results are given for CC(C)(C)[C@H](NC(=O)C(F)(F)F)C(=O)N1C[C@@H]2CCC[C@@H]2[C@H]1C(=O)N[C@@H](C[C@@H]1CCNC1=O)C(=O)c1nc2c(F)cccc2s1?
fold change (FC) (SARS-CoV-2 [6]): 1.6; CC50 at 72 h [1]: > 100 µM; EC50 (SARS-CoV-2 [3]): 0.095 µM

For CC(C)C(=O)OC[C@H]1O[C@@H](n2ccc(NO)nc2=O)[C@H](O)[C@@H]1O [MOLNUPIRAVIR], which Activity (PBMC) is on record?
Its Activity is “Non-Toxic”.

What about the Activity (MT2) of the same compound?
The Activity was “Toxic”.

What about the Activity (MOLT-4) of the same compound?
Its Activity is “Non-Toxic”.
